13 molecules from patent publication US9096615B2, “Bridged bicyclic amino thiazine dioxide compounds as inhibitors of beta-secretase and methods of use thereof” (AMGEN INC., priority 2013, dated 2015) can be followed below.

Test [1] relates to Aβ40 in conditioned medium of cells stably expressing Amyloid Precursor Protein (APP). Briefly: In vitro BACE cell-based assay (HEK cell assay, Aβ40 sandwich ELISA). The settings on record: Homo sapiens, HEK293; average IC50; read-out: BACE1 cell assay IC50. The gist of the method: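 IC50 was derived from percent-of-control Aβ40 against concentration, with Aβ40 quantified by time-resolved fluorescence ELISA (pAb40/6E10-biotin, 4 °C incubations). Supernatants were sampled after 24 h of compound exposure (10 points, starting 100 or 10 μM, 0.1% DMSO) of cells stably expressing APP.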
Background: In an ELISA, binding on a coated surface is turned into a signal by an enzyme label.

The target of a further test is T1, Cathepsin D (Cat D) (Homo sapiens, UniProt P07339).
T1 construct: made in house; host or cells: CHO cells
Briefly: In vitro enzymatic Cathepsin D (Cat D) FRET assay. The test is classed as biochemical. The settings on record: average IC50; first procedure; read-out: CatD IC50. In a few lines:
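Fluorescence (500 nm excitation, 580 nm emission) was measured after Tris quench of a 1 h cleavage of 20 nM quenched peptide substrate. Before that, 9 nM CHO-expressed human Cat D sat with compound for 1 h at pH 3.5 (0.05 M citrate, 5 mM CHAPS, 10% DMSO final).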

The subject of the next test is Abeta 40. Description: In vivo inhibition of beta-secretase: percent Abeta 40 reduction in CSF and brain. Further details: species or system rat. The settings on record: after 4 hrs; for inhibition in vivo at 10 mg/kg: 10 mpk. The text has this: In Vivo Inhibition of Beta-Secretase
Several animal models, including mouse, rat, dog, and monkey, may be used to screen for inhibition of beta-secretase activity in vivo following administration of a test compound sample. Animals used in this invention can be wild type, transgenic, or gene knockout animals. For example, the Tg2576 mouse model, prepared and conducted as described in Hsiao et al., 1996, Science 274, 99-102, and other non-transgenic or gene knockout animals are useful to analyze in vivo inhibition of Amyloid beta peptide (Abeta) production in the presence of inhibitory test compounds. Generally, 2 to 18 month old Tg2576 mice, gene knockout mice or non-transgenic animals are administered test compounds formulated in vehicles, such as cyclodextran, phosphate buffers, hydroxypropyl methylcellulose or other suitable vehicles. One to twenty-four hours following the administration of compound, animals are sacrificed, and brains as well as cerebrospinal fluid (CSF) and plasma are removed for analysis of A-beta levels and drug or test compound concentrations (Dovey et al., 2001, Journal of Neurochemistry, 76, 173-181) Beginning at time 0, animals are administered by oral gavage, or other means of delivery such as intravenous injection, an inhibitory test compound of up to 100 mg/kg in a standard, conventional formulation, such as 2% hydroxypropyl methylcellulose, 1% Tween80. A separate group of animals receive 2% hydroxypropyl methylcellulose, 1% Tween80 alone, containing no test compound, and serve as a vehicle-control group. At the end of the test period, animals are sacrificed and brain tissues, plasma or cerebrospinal fluid are collected. Brains are either homogenized in 10 volumes (w/v) of 0.2% diethylamine (DEA) in 50 mM NaCl (Best et al., 2005, Journal of Pharmacology and Experimental Therapeutics, 313, 902-908), or in 10 volumes of 0.5% TritonX-100 in Tris-buffered saline (pH at about 7.6). Homogenates are centrifuged at 355,000 g, 4° C. for 30 minutes. CSF or brain supernatants are then analyzed for the presence of A-beta peptide by specific sandwich ELISA assays based on ECL (Electrochemiluminescence) technology. For example, rat Abeta40 is measured using biotinylated-4G8 (Signet) as a capture antibody and Fab40 (an in-house antibody specific to the C-terminal of Abeta40) as a detection antibody. For example, 4 hours after administration of 30 mg/kg oral dose of the test compound in 2% hydroxypropyl methylcellulose, 1% Tween80 (pH2.2) to 200 g male Sprague Dawley rats, amyloid beta peptide levels are measured for reduction by X % and Y % in cerebrospinal fluid and brain, respectively, when compared to the levels measured in the vehicle-treated or control […].
Actual vehicles used: Oral: 2% HPMC, 1% Tween80, pH 2.2
• IV: 5% EtOH, 45% Propylene glycol in 5% Dextrose
The compounds of the invention may be shown to reduce the formation and/or deposition of amyloid beta peptide in the cerebrospinal fluid (CSF) as well as in the brain of a mouse or rat at either 3 mpk, 10 mpk or 30 mpk (mpk=mg compound per kg weight of the animal) dosing concentrations after 4 hrs.

Setting [2] is: Abeta 40, rat CSF, read-out: % reduction of rat CSF levels at 10 pmk.
[3] abbreviates: Abeta 40, rat brain, read-out: % reduction of rat brain levels at 10 mpk.

Read-outs that look alike come from different tables or passages of the source. Bounds are passed on as bounds.

T1 sequence (P07339 65-412, species assumed): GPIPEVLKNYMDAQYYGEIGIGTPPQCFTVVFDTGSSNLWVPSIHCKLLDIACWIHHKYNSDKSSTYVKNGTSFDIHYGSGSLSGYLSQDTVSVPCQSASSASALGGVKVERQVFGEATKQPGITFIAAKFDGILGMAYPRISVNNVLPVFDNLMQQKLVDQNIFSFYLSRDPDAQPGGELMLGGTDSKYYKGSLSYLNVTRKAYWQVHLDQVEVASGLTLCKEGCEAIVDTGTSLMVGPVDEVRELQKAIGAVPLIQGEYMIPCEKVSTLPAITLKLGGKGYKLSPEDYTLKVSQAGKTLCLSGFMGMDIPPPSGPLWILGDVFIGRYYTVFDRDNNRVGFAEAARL

What is called IC50 is the concentration needed to halve the response being measured. In the case of `C[C@]1(c2cc(Nc3ncnc4cc(C(F)(F)F)cnc34)ccc2F)N=C(N)[C@@]2(C)CC[C@@H]1S2(=O)=O` [Example 106, N-(3-((1S,2R,5R)-4-amino-2,5-dimethyl-8,8-dioxido-8-thia-3-azabicyclo[3.2.1]oct-3-en-2-yl)-4-fluorophenyl)-7-(trifluoromethyl)pyrido[3,2-d]pyrimidin-4-amine], the figures for the IC50 (in test [1]; on Cathepsin D (Cat D)) were 6 nM and 317 µM, respectively. Moreover, the inhibition in vivo at 10 mg/kg with Abeta 40 (setting [2]) worked out at 59%; in the test with Abeta 40 (setting [3]) it was 29%.
Taken in the same sequence, the figures for `Cc1cc(Cl)cnc1C(=O)Nc1ccc(F)c([C@@]2(C)N=C(N)[C@@]3(CF)CC[C@@H]2S3(=O)=O)c1` [Example 88, N-(3-((1S,2R,5R)-4-amino-5-(fluoromethyl)-2-methyl-8,8-dioxido-8-thia-3-azabicyclo[3.2.1]oct-3-en-2-yl)-4-fluorophenyl)-5-chloro-3-methyl-2-pyridinecarboxamide] were 5 nM, 685 µM, 77% and 70%.
Taken in the same sequence, the figures for `COc1cnc2c(Nc3ccc(F)c([C@@]4(C)N=C(N)[C@@]5(C)CC[C@@H]4S5(=O)=O)c3)nccc2n1` [Example 80, N-(3-((1S,2R,5R)-4-amino-2,5-dimethyl-8,8-dioxido-8-thia-3-azabicyclo[3.2.1]oct-3-en-2-yl)-4-fluorophenyl)-2-methoxypyrido[3,4-b]pyrazin-5-amine] were 6 nM, more than 400 µM, 72% and 63%.
Taken in the same sequence, the figures for `C[C@]1(c2cc(Nc3ncnc4cc(C#N)cnc34)ccc2F)N=C(N)[C@@]2(CF)CC[C@@H]1S2(=O)=O` [Example 40, 4-((3-((1S,2R,5R)-4-amino-5-(fluoromethyl)-2-methyl-8,8-dioxido-8-thia-3-azabicyclo[3.2.1]oct-3-en-2-yl)-4-fluorophenyl)amino)pyrido[3,2-d]pyrimidine-7-carbonitrile] were 35 nM, 650 µM, 59% and 24%.
For the molecule `COc1cnc2c(Nc3ccc(F)c([C@@]4(C)N=C(N)[C@@]5(CF)CC[C@@H]4S5(=O)=O)c3)nccc2c1` [Example 56, N-(3-((1S,2R,5R)-4-amino-5-(fluoromethyl)-2-methyl-8,8-dioxido-8-thia-3-azabicyclo[3.2.1]oct-3-en-2-yl)-4-fluorophenyl)-3-methoxy-1,7-naphthyridin-8-amine], the IC50 in test [1] is 16.7 nM; on Cathepsin D (Cat D), more than 400 µM. Also, in the test on Abeta 40 (setting [2]), the inhibition in vivo at 10 mg/kg came out at 69%.
Take `CC#CCOc1cnc(C(=O)Nc2ccc(F)c([C@@]3(C)N=C(N)[C@@]4(C)CC[C@@H]3S4(=O)=O)c2)cn1` [Example 82, N-(3-((1S,2R,5R)-4-amino-2,5-dimethyl-8,8-dioxido-8-thia-3-azabicyclo[3.2.1]oct-3-en-2-yl)-4-fluorophenyl)-5-(2-butyn-1-yloxy)-2-pyrazinecarboxamide]: the half-inhibitory concentration (IC50) in test [1] turned out to be 0.07 nM; on Cathepsin D (Cat D) it was 717 µM. Besides, the inhibition in vivo at 10 mg/kg in the test on Abeta 40 (setting [2]) came out at 71%; in the test on Abeta 40 (setting [3]) it was 56%.
Taken in the same sequence, the figures for `Cc1cc(OC(F)F)cnc1C(=O)Nc1ccc(F)c([C@@]2(C)N=C(N)[C@@]3(CF)CC[C@@H]2S3(=O)=O)c1` [Example 102, N-(3-((1S,2R,5R)-4-amino-5-(fluoromethyl)-2-methyl-8,8-dioxido-8-thia-3-azabicyclo[3.2.1]oct-3-en-2-yl)-4-fluorophenyl)-5-(difluoromethoxy)-3-methyl-2-pyridinecarboxamide] were 2 nM, 451 µM, 67% and 68%.
Regarding `COc1cnc2c(Nc3ccc(F)c([C@@]4(C)N=C(N)[C@@]5(CF)CC[C@@H]4S5(=O)=O)c3)ncnc2c1` [Example 97, N-(3-((1S,2R,5R)-4-amino-5-(fluoromethyl)-2-methyl-8,8-dioxido-8-thia-3-azabicyclo[3.2.1]oct-3-en-2-yl)-4-fluorophenyl)-7-methoxypyrido[3,2-d]pyrimidin-4-amine], the concentration for half-maximal inhibition (IC50) was 7 nM in test [1] and 359 µM at Cathepsin D (Cat D). Besides, the inhibition in vivo at 10 mg/kg in the test on Abeta 40 (setting [2]) was found to be 75%; in the test with Abeta 40 (setting [3]), 76%.
On the same counts, the results for `COc1cnc(C(=O)Nc2ccc(F)c([C@@]3(C)N=C(N)[C@@]4(CF)CC[C@@H]3S4(=O)=O)c2)c(C)n1` [Example 76, N-(3-((1S,2R,5R)-4-amino-5-(fluoromethyl)-2-methyl-8,8-dioxido-8-thia-3-azabicyclo[3.2.1]oct-3-en-2-yl)-4-fluorophenyl)-5-methoxy-3-methyl-2-pyrazinecarboxamide] are 8 nM, 1060 µM, 76% and 66%.
Turning to `Cc1cc(C#N)cnc1C(=O)Nc1ccc(F)c([C@@]2(C)N=C(N)[C@@]3(CF)CC[C@@H]2S3(=O)=O)c1` [Example 96, N-(3-((1S,2R,5R)-4-amino-5-(fluoromethyl)-2-methyl-8,8-dioxido-8-thia-3-azabicyclo[3.2.1]oct-3-en-2-yl)-4-fluorophenyl)-5-cyano-3-methyl-2-pyridinecarboxamide], the IC50 in test [1] is 2 nM; at Cathepsin D (Cat D), 733 µM. In addition, in the test on Abeta 40 (Abeta 40, rat CSF, 3 mpk), the “% reduction of rat CSF levels (3 mpk)” value is listed as 60 (3 mpk) %. Besides, the “% reduction of rat brain levels (3 mpk)” value in the test with Abeta 40 (Abeta 40, rat brain, 3 mpk) is listed as 39 (3 mpk) %.
In the case of `C[C@]1(c2cc(Nc3nccc4nc(OCc5ncco5)cnc34)ccc2F)N=C(N)[C@@]2(CF)CC[C@@H]1S2(=O)=O` [Example 104, N-(3-((1S,2R,5R)-4-amino-5-(fluoromethyl)-2-methyl-8,8-dioxido-8-thia-3-azabicyclo[3.2.1]oct-3-en-2-yl)-4-fluorophenyl)-2-(1,3-oxazol-2-ylmethoxy)pyrido[3,4-b]pyrazin-5-amine], the IC50 in test [1] is 0.9 nM; at Cathepsin D (Cat D) it was 799 µM. The values for the inhibition in vivo at 10 mg/kg with Abeta 40 (setting [2]) and with Abeta 40 (setting [3]) were 74% and 71%, respectively.
Taken in the same sequence, the figures for `COc1cnc2c(Nc3ccc(F)c([C@@]4(C)N=C(N)[C@@]5(C)CC[C@@H]4S5(=O)=O)c3)ncnc2c1` [Example 132, N-(3-((1S,2R,5R)-4-amino-2,5-dimethyl-8,8-dioxido-8-thia-3-azabicyclo[3.2.1]oct-3-en-2-yl)-4-fluorophenyl)-7-methoxypyrido[3,2-d]pyrimidin-4-amine] were 3 nM, 965 µM, 70% and 50%.
On the same counts, the results for `COc1cnc2c(Nc3ccc(F)c([C@@]4(C)N=C(N)[C@@]5(C)CC[C@@H]4S5(=O)=O)c3)ncc(F)c2c1` [Example 78, N-(3-((1S,2R,5R)-4-amino-2,5-dimethyl-8,8-dioxido-8-thia-3-azabicyclo[3.2.1]oct-3-en-2-yl)-4-fluorophenyl)-5-fluoro-3-methoxy-1,7-naphthyridin-8-amine] are 12 nM, 3240 µM, 52% and 46%.
